pKd: −log10 of the molar value. Entries after “also recorded” stand apart in the source; their conditions may differ.
What was measured:
mAb 4C7 [1] = type: binding, mouse
mAb 9C1-2 = type: binding, mouse
mAb 4C7 [2] = type: binding, mouse; remark: listed apart in the source
mAb 3D11 = type: binding, mouse
mAb 4C7 [3] = type: binding, mouse; conditions: for pKd: read-out: K D of mAb 4C7 binding
mAb Pp-PS-W = type: binding, mouse
[4] = test system: serum samples from culture-confirmed Thai melioidosis patients; type: binding, human

COC1C(O)C(C)OC(OC2C(O)C(CO)OC(OCCCCCN)C2O)C1OC(C)=O (stereo not shown) [disaccharide 6]
reactivity with mAb 4C7 (ELISA) (mAb 4C7 [1]): reacted strongly; also recorded: highest recognition | reactivity with mAb 9C1-2 (ELISA) (mAb 9C1-2): reacted strongly | normalized STD effect, O-acetyl group (mAb 4C7 [2]): 97% | normalized STD effect, glucose proton H3 (mAb 4C7 [2]): ~60% | normalized STD effect, talose H1 (mAb 4C7 [2]): 96% | normalized STD effect, talose H4 (mAb 4C7 [2]): 88% | normalized STD effect, talose proton at position 2 (mAb 4C7 [2]): 100% | normalized STD intensities, glucose protons at positions 4, 5, and 6 (mAb 4C7 [2]): < 50% | reactivity with mAb 3D11 (ELISA) (mAb 3D11): reacted strongly

COC1C(OC(C)=O)C(C)OC(OC2C(O)C(CO)OC(OCCCCCNC(=O)CCCCCNC(=O)CCCCC3SCC4NC(=O)NC43)C2O)C1OC(C)=O (stereo not shown) [BIO-7]
binding of mAb 4C7 according to sensorgrams (mAb 4C7 [3]): bound | pKd (mAb 4C7 [3]): 6.92

COC1C(O)C(C)OC(OC2C(O)C(CO)OC(OCCCCCNC(=O)CCCCCNC(=O)CCCCC3SCC4NC(=O)NC43)C2O)C1OC(C)=O (stereo not shown) [BIO-6]
binding of mAb 4C7 according to sensorgrams (mAb 4C7 [3]): bound | pKd (mAb 4C7 [3]): 7.66

CC(=O)OC1C(OC2C(O)C(CO)OC(OCCCCCNC(=O)CCCCCNC(=O)CCCCC3SCC4NC(=O)NC43)C2O)OC(C)C(O)C1OC1OC(CO)C(O)C(O)C1O (stereo not shown) [BIO-2]
K D of mAb 4C7 binding (mAb 4C7 [3]): no binding | binding of mAb 4C7 according to sensorgrams (mAb 4C7 [3]): did not interact

COC1C(OC(C)=O)C(C)OC(OC2C(O)C(CO)OC(OCCCCCN)C2O)C1OC(C)=O (stereo not shown) [disaccharide 7]
STD-NMR effects with mAb 4C7 (mAb 4C7 [2]): some STD enhancements were observed; also recorded: Low and not quantifiable STD effects | STD-NMR signals with mAb 4C7 (mAb 4C7 [2]): did not show any signals | reactivity with mAb Pp-PS-W (ELISA) (mAb Pp-PS-W): reacted strongly | reactivity of human immune serum samples with the coated antigen [4]: crossreact
